Experimental data: PubChem BioAssay AID179 (DTP/NCI, 2004)
Calls of active or inactive are those of the source.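 The calls were made as follows: active = compounds giving half or more protection of infected cells from virus-caused growth loss, again on retest; inactive = the rest.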 Where a SMILES comes first, the peptide text is derived from it. Bridges are numbered along the chain shown (N, C = ends). The star is where a group is joined. Cbz = O=C(OCc1ccccc1)*

Test system: CEM cells HIV-1 protection, formazan growth assay
Experiment: NCI AIDS Antiviral Assay
Settings: for IC50: measured here: growth of uninfected CEM cells
Procedure, shortened: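 Screen of anti-HIV-1 activity in human CEM cells using a formazan-based growth measurement at five drug concentrations. Hits with 50% or greater protection were repeated, and confirmation required reproducible complete protection.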

| SMILES | EC50 | IC50 | outcome |
| --- | --- | --- | --- |
| CC1(C)OCC2OC3OC(C)(C)OC3C(OS(C)(=O)=O)C2O1 (stereo not drawn) | > 200 µM | > 200 µM | – |
| O=P1(Cc2ccccc2)OC2CC(Cl)CC(C2)O1 (stereo not drawn) | > 126 µM | > 126 µM | – |
| CCC(C#N)NCc1cccc(CNC(C#N)CC)c1 (stereo not drawn) | > 200 µM | > 200 µM | – |
| O=C(CN1CCOCC1)Nc1nc(-c2ccc(Cl)cc2)cs1 | > 107 µM | 33.1 µM | – |
| C[C@]1(O)CC[C@H]2[C@@H]3CCC4=CC(=O)CC[C@]4(C)[C@@]3(Cl)[C@@H](Cl)C[C@@]21C | > 200 µM | > 200 µM | – |
| COc1cc(Nc2c3ccccc3nc3ccccc23)ccc1NS(C)(=O)=O | > 200 µM | 2.4 µM | – |
| Brc1cc2c(cc1C1SCCS1)OCO2 | > 107 µM | 60.3 µM | – |
| COc1cc(C2c3cc4c(cc3OC(NCCO)C2C)OCO4)cc(OC)c1OC (stereo not drawn) | > 20 µM | 0.24 µM | – |
| O=C1/C(=N\N(C(=O)c2ccccc2)c2ccccc2)c2cccc3cccc1c23 | > 3.8 µM | > 3.8 µM | – |
| O=[N+]([O-])C1(CO)COC(CCc2ccccc2)OC1 (stereo not drawn) | – | – | inactive |
| COc1ccc(OC)c(/C=N/N=C(\N)NO)c1 | > 603 µM | 115 µM | – |
| COc1ccc2cc1Oc1cc3c(cc1OC)CC[N+](C)(C)C3Cc1ccc(cc1)Oc1c(OC)c(OC)cc3c1C(C2)[N+](C)(C)CC3 (stereo not drawn) | > 200 µM | > 200 µM | – |
| COc1ccc(C(=O)/C=C/c2ccc(OCC(=N)N)cc2)cc1 | > 200 µM | 9.77 µM | – |
| O=C(c1ccccc1)N1CCN(C(=S)N(C(=O)c2ccccc2)c2ccccc2)C1=S | > 200 µM | 3.72 µM | – |
| CC(Cl)c1nc2c(c(=O)[nH]1)C1CCCCCCCN1C(=S)N2C (stereo not drawn) | > 200 µM | 12.3 µM | – |
| COc1cc2c(c3c1c(=O)c1ccccc1n3C)C=CC1(CCCC1)O2 | > 200 µM | 11 µM | – |
| O=C(NC/C=C/Br)NC1CCNc2ccccc21 (stereo not drawn) | > 200 µM | 14.1 µM | – |
| O=C(O)CN1C(=O)c2cccc3cccc(c23)C1=O | > 200 µM | > 200 µM | – |
| COC(=O)[C@@H]1C(CO)[C@H](n2cc(C)c(=O)[nH]c2=O)C1(C)C (stereo partly drawn) | > 437 µM | > 437 µM | – |
| O=C(O)CN1CCN2CCCCCN(CC1)CCN(CC(=O)O)CC2 | > 200 µM | 12.6 µM | – |
| O=C1NCC(=O)c2ncn(C3OC(CO)C(O)C3O)c2N1 (stereo not drawn) | > 603 µM | > 603 µM | – |
| COC(=O)C1CCC(=O)NCCCCC(NC(=O)OCc2ccccc2)C(=O)N1 (stereo not drawn) (Cbz-Lys-Glu-OMe; lactam 1-2; configuration not given here) | > 200 µM | > 200 µM | – |

| SMILES | EC50 | IC50 | outcome |
| --- | --- | --- | --- |
| O=C(O)c1cnnc2ccccc12 | > 1450 µM | > 1450 µM | – |
| CSC[C@H](NC(=O)COc1cccc2cnccc12)C(=O)NC(Cc1ccccc1)C(O)C(=O)N1CSC[C@H]1C(=O)NC(C)(C)C (stereo partly drawn) | 0.0513 µM | 10 µM | – |
| CC1CN(c2ccc(Cl)cc2)CC(C)(C)OC(=O)O1 (stereo not drawn) | > 331 µM | 21.4 µM | – |
| C=C1CC(COc2ccc3c(C)c(C)c(=O)oc3c2C)(c2ccccc2)OC1=O (stereo not drawn) | > 200 µM | 0.933 µM | – |
| O=c1c2cc(-c3ccccc3)sc2nc2n1N=C(c1ccc(Cl)cc1)CS2 | > 200 µM | > 200 µM | – |
| COC(=O)/C=C1/C(COC(c2ccccc2)(c2ccccc2)c2ccccc2)OC(n2ccc(=O)[nH]c2=O)C1O[Si](C)(C)C(C)(C)C (stereo not drawn) | > 200 µM | 10.7 µM | – |
| N=c1n(CC(=O)NC23CC4CC(CC(C4)C2)C3)c2ccccc2n1Cc1ccccc1 | > 79.4 µM | 14.1 µM | – |
| Nc1n[n+]([O-])c2cc([N+](=O)[O-])ccc2[n+]1[O-] | > 20 µM | 0.603 µM | – |
| Cc1cn(C2CC(N=[N+]=[N-])C(CO[Si](C)(C)C(C)(C)C)O2)c(=O)[nH]c1=O (stereo not drawn) | 7.08 µM | 66.1 µM | – |
| Cc1nn(C(=O)CC(=O)Nc2ccc(Cl)cc2)c(C)c1N=Nc1ccccc1F | – | – | inactive |
| CCOC(=O)c1cc(C2CCN(c3ccccc3)C2=O)c(/C(O)=C/C(C)=O)[nH]1 (stereo not drawn) | > 200 µM | 5.01 µM | – |
| O=C1COc2cc3c(cc2N1)SCC(=O)N3 | > 42.7 µM | > 42.7 µM | – |
| CCCCOC(=O)C(O)Cc1ccoc1 (stereo not drawn) | > 200 µM | > 200 µM | – |
| C=CCSC(C)=O | > 200 µM | > 200 µM | – |
| C[C@]12CCC(=O)C(O)=C1CC[C@@H]1C2CC[C@]2(C)NC(=O)CCC12 (stereo partly drawn) | > 40.7 µM | > 40.7 µM | – |
| CC(=O)OCC1OC(n2cnc([N+](=O)[O-])c2Br)C(OC(C)=O)C1OC(C)=O (stereo not drawn) | > 200 µM | 11.7 µM | – |
| CC(=O)[O-].CC(=O)[O-].O=C(N/N=C/c1cc(Cl)cc(Cl)c1O)c1ccncc1.[Cu+2] | – | – | inactive |
| O=c1cc(CO)[nH]cc1O | – | – | inactive |
| CCOC(=O)c1sc(SC)nc1NC(=O)c1ccc(Cl)cc1 | > 200 µM | > 200 µM | – |
| CC(C)(C)c1ccc(C2(Br)C(=O)NC(=O)C2=O)cc1 (stereo not drawn) | > 200 µM | > 200 µM | – |
| CCC[CH2][Sn]([CH2]CCC)([O]C(=O)c1cc(OC)c(OC)cc1OC)[O]C(=O)c1cc(OC)c(OC)cc1OC | > 39.8 µM | 0.776 µM | – |
| O=c1c2ccccc2[nH]c(=S)n1-c1cccc(C(F)(F)F)c1 | > 200 µM | > 200 µM | – |

| SMILES | EC50 | IC50 | outcome |
| --- | --- | --- | --- |
| O=[N+]([O-])c1ccc2c(c1)c1nn2CCCCOc2nn(c3ccc([N+](=O)[O-])cc23)CCCCO1 | > 200 µM | > 200 µM | – |
| COc1ccc(Oc2nc3c(N)cc(C(F)(F)F)cc3nc2-c2ccccc2)cc1 | > 100 µM | 34.7 µM | – |
| CC(=O)OCCCCn1cnc2c(Cl)nc(Nc3ccccc3)nc21 | > 200 µM | > 200 µM | – |
| O=[N+]([O-])c1cccc(-c2ncc3c(n2)-c2ccccc2C3)c1 | – | – | inactive |
| COc1ccc(C(c2ccc(C(C)C)cc(=O)c2O)c2ccc3cccnc3c2O)cc1 (stereo not drawn) | – | – | inactive |
| CCCCC(=O)N1C(=O)/C(=C\N(C)C)c2cc(C=O)ccc21 | > 200 µM | 29.5 µM | – |
| O=C(O)c1cc([N+](=O)[O-])c2c(c1)P(=O)(O)c1cc(C(=O)O)cc([N+](=O)[O-])c1O2 | > 200 µM | > 200 µM | – |
| Cc1ccc(N=C(SSC(Cl)(Cl)Cl)SSC(Cl)(Cl)Cl)cc1 | – | – | inactive |
| c1ccc(C2N=NN(c3ccccc3)C2N2CCCCC2)cc1 (stereo not drawn) | – | – | inactive |
| O=[N+]([O-])C(C=C(n1nnc2ccccc21)n1nnc2ccccc21)=C(n1nnc2ccccc21)n1nnc2ccccc21 | > 200 µM | > 200 µM | – |
| COC(=O)CCc1ccc2c(c1)CC1(C2)Cc2ccc3c(c2C1)CCC3 (stereo not drawn) | > 200 µM | > 200 µM | – |
| O=NN1C(c2ccccc2)CCCC1c1ccccc1 (stereo not drawn) | > 51.3 µM | > 51.3 µM | – |
| [N-]=[N+]=C(C(=O)CN1CCCC1=O)S(=O)(=O)c1ccccc1 | > 813 µM | 437 µM | – |
| O=C(NC(=O)c1c(F)cccc1F)Nc1ccc(Br)cn1 | > 200 µM | > 200 µM | – |
| CC(/C=C/c1ccccc1)=Nc1ccccc1 | > 23.4 µM | > 23.4 µM | – |
| C=CCC1(C)CCCCC1(O)CS(=O)c1ccccc1 (stereo not drawn) | – | – | inactive |
| O=S1(=O)c2ccccc2NC(=S)CC1c1ccccc1 (stereo not drawn) | > 200 µM | 129 µM | – |
| CC(=O)Nc1ccc(C(=O)NN2C(=O)C(Cl)C2/C=C/c2ccccc2)cc1 (stereo not drawn) | 135 µM | 166 µM | – |
| O=NNc1ccc(SSc2ccc(NN=O)cc2)cc1 | > 200 µM | 79.4 µM | – |
| S=c1[nH]nc(COc2ccc(Cl)cc2)o1 | > 204 µM | > 204 µM | – |
| O=C1[C@@H]2C(c3ccccc3[N+](=O)[O-])=NO[C@@H]2C(=O)N1c1ccc(Cc2ccc(N3C(=O)[C@H]4C(c5ccccc5[N+](=O)[O-])=NO[C@H]4C3=O)cc2)cc1 | > 20 µM | > 20 µM | – |
| COc1c(NC(=O)CC(C)=O)[c]([Hg][O]C(C)=O)c(OC)c(Cl)[c]1[Hg][O]C(C)=O | > 0.692 µM | > 0.692 µM | – |

| SMILES | EC50 | IC50 | outcome |
| --- | --- | --- | --- |
| CCCCCCCCCCCCc1ccsc1-c1ccc(-c2ccc(-c3sccc3CCCCCCCCCCCC)s2)s1 | > 25.1 µM | > 25.1 µM | – |
| C[n+]1c(-c2ccc(/C=N\NC(=O)c3cccc(C(=O)N/N=C/c4ccc(-c5cn6ccccc6[n+]5C)cc4)c3)cc2)cn2ccccc21 | 6.03 µM | 89.1 µM | – |
| O=C1CCCC/C1=C/c1ccccc1 | > 200 µM | 12.9 µM | – |
| CC(C)(C)C(=O)N(C(=S)OCc1ccccn1)c1ccccc1 | > 200 µM | 40.7 µM | – |
| C[C@@H]1CC[C@@]2(OC1)O[C@H]1C[C@H]3[C@@H]4CC[C@H]5C[C@@H](OC6OC(CO)C(OC7OC(CO)C(O)C(OC8OCC(O)C(O)C8O)C7OC7OC(CO)C(O)C(O)C7O)C(O)C6O)[C@H](O)C[C@]5(C)[C@H]4CC[C@]3(C)[C@H]1[C@@H]2C (stereo partly drawn) | > 2 µM | 1 µM | – |
| N#C/C(=C\c1ccc(Cl)cc1)C(=O)c1ccccc1 | > 83.2 µM | > 83.2 µM | – |
| O=C(NCC(O)CNC(=O)C(F)(F)F)C(F)(F)F | – | – | inactive |
| COC(O)C(=O)c1c2c(cc3c1CCC3)CCC2 (stereo not drawn) | > 200 µM | 174 µM | – |
| CCOc1ccccc1NC(=O)C(=O)CC(=O)c1sc(Nc2nnc(-c3ccc(Cl)c(Cl)c3)o2)nc1C | > 33.9 µM | > 33.9 µM | – |
| CCC/[N+]([O-])=C/c1ccc([N+](=O)[O-])o1 | – | – | inactive |
| CCC1=CC2CN3CCc4c([nH]c5ccccc45)C(C(=O)OC)(C2)C13 (stereo not drawn) | – | – | inactive |
| O=c1[nH]c2nccnc2c2c([N+](=O)[O-])cccc12 | > 200 µM | > 200 µM | – |
| COc1ccc(-c2c(C#N)c(N)nc3c2CCS(=O)(=O)c2ccccc2-3)cc1 | > 200 µM | > 200 µM | – |
| CCN(CC)C(=S)SCCCS(=O)(=O)O | – | – | inactive |
| CC(=O)NC1(NC(C)=O)C2CC(C1Cc1ccccc1)C(C)(C)C2C (stereo not drawn) | > 724 µM | > 724 µM | – |
| Cc1ccc(S(=O)(=O)NC2CCCCO2)cc1 (stereo not drawn) | > 708 µM | > 708 µM | – |
| CCCC(NCCNC(CCC)C(=O)O)C(=O)O (stereo not drawn) | > 589 µM | > 589 µM | – |
| CC1CC(C(=O)CC2CC(=O)NC(=O)C2)C(=O)[C@@H](C)C1 (stereo partly drawn) | – | – | inactive |
| Cc1cc(-c2cccs2)oc(=O)c1NC(=O)c1cnccn1 | > 200 µM | > 200 µM | – |
| O=c1[nH]c(=O)n(C2CC(O)C(COP(=O)(OCc3ccc([N+](=O)[O-])o3)N3CCCCC3)O2)cc1F (stereo not drawn) | > 200 µM | 0.17 µM | – |
